From patent US20120177701A1, “COMPOSITIONS COMPRISING IMMUNOSTIMULATORY NUCLEIC ACIDS AND RELATED METHODS” (priority 2010, published 2012) come the findings set out here.

In one series the test system is murine splenocytes. Kind of series: Immune cell activation (CD69 expression, FACS) in murine splenocytes. It counts as cell-based, mouse. Particulars: 20 hours; for activation of immune cell populations (CD69 expression) / immune cell activation compared with R848 and control oligonucleotide: 200 nM DOTAP-complexed; for immune cell activation compared with R848 and control oligonucleotide: R848 1 μM; for NKT cell activation (CD69) / T cell activation (CD69) / granulocyte activation (CD69): compared with R848 1 μM. As for the experimental part:
In addition, upon removal of the supernatant at 20 hours post-incubation, the mouse cells were stained for the following cell markers: GR1, F4/80, CD11c, CD220, CD3, Ly49b, and CD69, and analyzed by FACS. Different immune cell populations were distinguished as follows: macrophages (F4/80^+/GR1^−); plasmacytoid dendritic cells or pDC (CD11c^+/CD220^+); B cells (CD220^+/CD11c^−); NK (CD3^−/Ly49b^+); myeloid DC or mDC ([…]); granulocytes (eosinophils) (GR1^+high/F4/80^−); T cells (CD3^+); and NKT cells (CD3^+/Ly49b^+). All immune cell populations were quantified by the expression of CD69 (am early activation marker).

For the next series, the target named is T1, human TLR8 (Homo sapiens, UniProt Q9NR97).
T1 construct: host or cells: HEK293 (HEK-Blue hTLR8) with NF-kB-inducible SEAP reporter
T1 sequence (Q9NR97 27-1041): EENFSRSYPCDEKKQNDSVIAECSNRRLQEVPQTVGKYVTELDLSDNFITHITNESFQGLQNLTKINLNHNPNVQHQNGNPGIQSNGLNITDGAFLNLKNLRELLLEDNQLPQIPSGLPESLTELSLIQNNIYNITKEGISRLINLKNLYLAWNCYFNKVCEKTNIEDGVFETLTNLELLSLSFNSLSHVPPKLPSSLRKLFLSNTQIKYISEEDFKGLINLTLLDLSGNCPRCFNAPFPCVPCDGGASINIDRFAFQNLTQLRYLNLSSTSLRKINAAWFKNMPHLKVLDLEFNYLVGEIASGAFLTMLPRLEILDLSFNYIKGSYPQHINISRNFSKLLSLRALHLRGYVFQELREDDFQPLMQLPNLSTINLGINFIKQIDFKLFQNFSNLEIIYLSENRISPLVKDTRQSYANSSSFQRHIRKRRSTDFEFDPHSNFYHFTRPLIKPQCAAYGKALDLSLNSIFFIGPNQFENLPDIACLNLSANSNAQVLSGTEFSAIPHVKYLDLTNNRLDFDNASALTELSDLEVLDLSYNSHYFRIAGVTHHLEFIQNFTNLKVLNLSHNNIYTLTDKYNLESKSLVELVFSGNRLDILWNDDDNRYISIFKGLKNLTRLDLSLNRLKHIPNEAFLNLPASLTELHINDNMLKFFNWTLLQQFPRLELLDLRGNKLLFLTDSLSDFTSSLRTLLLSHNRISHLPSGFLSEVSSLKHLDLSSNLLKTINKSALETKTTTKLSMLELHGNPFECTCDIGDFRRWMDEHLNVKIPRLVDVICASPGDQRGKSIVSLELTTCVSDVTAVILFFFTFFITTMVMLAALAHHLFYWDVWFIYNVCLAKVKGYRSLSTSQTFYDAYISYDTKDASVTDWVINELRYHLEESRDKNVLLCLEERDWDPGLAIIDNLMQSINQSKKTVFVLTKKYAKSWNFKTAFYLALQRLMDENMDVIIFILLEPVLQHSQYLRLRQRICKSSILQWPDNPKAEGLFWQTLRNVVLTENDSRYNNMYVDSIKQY
Kind of series: HEK-Blue hTLR8 NF-kB-inducible SEAP reporter assay (TLR8 activation). The class given is cell-based.

Another series deals with J774 murine macrophages. Kind of series: TNF-α induction in mouse macrophage cell line J774. It counts as cell-based. As for the experimental part:
Induction of TNF-α by macrophages is a hallmark of human TLR8 activation (Forsbach et al., 2008, J. Immunol., 180:3729-38; Ghosh et al., 2007, Int. Immunopharmacol., 7:1111-21; Gorden et al., 2005, J. Immunol., 174:1259-68). […] In the following experiment mouse macrophage cell line, J774, has been transfected by test ribonucleotides as described above for HEK-Blue™ hTLR8 cells (with the exception that 2-10×10^4 cells/well were used) and TNF-α was measured in culture supernatants at 16-20 hours after transfection.

Regarding “5′-UUAUUUUGUUUUUAAUAUUU-3′ (phosphorothioate backbone, further chemistry not given here) [SL-0012]”, in the series with murine splenocytes, the “activation of immune cell populations (CD69 expression)” value (“activation of immune cell populations” below) is listed as “induced activation in most of the tested immune cell populations”; the “immune cell activation compared with R848 and control oligonucleotide” value was “at least comparable to that generated by treatment with 1 μM of R848, and usually exceeded the effects exhibited by the control oligonucleotide R-0006”. Also, in the series with murine splenocytes (200 nM), the “NKT cell activation (CD69)” value is “exceeded the activation observed for R848”, the “T cell activation (CD69)” value is given as “exceeded the activation observed for R848” and the “granulocyte activation (CD69)” value was “exceeded the activation observed for R848”. The “macrophage activation (CD69)” value in the series on murine splenocytes (200 nM, compared with R-0006) is on record as “especially higher than the activation observed for R-0006”.

On to “5′-GUUUAUCUGUGUG----------CAGUUUAAAC-3′ (GUUUAUCUGUGUGCAGUUUAAAC; phosphorothioate, further chemistry not given here) [SL-0020, dashes signify deleted nucleotides]”, for which the “TLR8 activation (fold increase of SEAP induction over the background), described in words” value with human TLR8 is given as “activity similar or exceeding that of SL-0004”. Moreover, in the series with J774 murine macrophages, the “TNF-α induction, described in words” value is listed as “most potent” and the “concentration at which TNF-α induction reached plateau” value is given as 300 nM.

Take “5′-UUAUUUUGUUUUUAAUAUUUC-3′ (phosphorothioate backbone, further chemistry not given here) [SL-0011]”: in the series with murine splenocytes, the “activation of immune cell populations” value is recorded as “induced activation in most of the tested immune cell populations”; the “immune cell activation compared with R848 and control oligonucleotide” value is “at least comparable to that generated by treatment with 1 μM of R848, and usually exceeded the effects exhibited by the control oligonucleotide R-0006”. In addition, in the series on murine splenocytes (200 nM), the “NKT cell activation (CD69)” value is listed as “exceeded the activation observed for R848”, the “T cell activation (CD69)” value was “exceeded the activation observed for R848” and the “granulocyte activation (CD69)” value is reported as “exceeded the activation observed for R848”. Moreover, in the series with murine splenocytes (200 nM, compared with R-0006), the “B-cell activation (CD69)” value was “especially higher than the activation observed for R-0006” and the “macrophage activation (CD69)” value is “especially higher than the activation observed for R-0006”.

On to “5′-AUUUAUUUUUAAAUUUUUGUGU-3′ (phosphorothioate, further chemistry not given here) [SL-0023, phosphorothioated ribonucleotide completely contained within SL-0005]”, for which the “TLR8 activation (fold increase of SEAP induction over the background), described in words” value with human TLR8 is recorded as “even stronger activity than the parental SL-0005 sequence”.

Turning to “5′-AGAUGUUA--UUGUUU-AAUAUUU-3′ (AGAUGUUAUUGUUUAAUAUUU; phosphorothioate backbone, further chemistry not given here) [SL-0014, phosphorothioated ribonucleotide from SL-0001; dashes signify deleted nucleotides]”, in the series with murine splenocytes, the “activation of immune cell populations” value was “induced activation in most of the tested immune cell populations”; the “immune cell activation compared with R848 and control oligonucleotide” value is “at least comparable to that generated by treatment with 1 μM of R848, and usually exceeded the effects exhibited by the control oligonucleotide R-0006”. Also, in the series with murine splenocytes (200 nM), the “NKT cell activation (CD69)” value is “exceeded the activation observed for R848”, the “T cell activation (CD69)” value was “exceeded the activation observed for R848” and the “granulocyte activation (CD69)” value is on record as “exceeded the activation observed for R848”. Moreover, the “macrophage activation (CD69)” value in the series on murine splenocytes (200 nM, compared with R-0006) is “especially higher than the activation observed for R-0006”.

As to “5′-CUGUGUGAACGAUAGUGCAG-3′ (phosphorothioate, further chemistry not given here) [SL-0019, phosphorothioated ribonucleotide derived from SL-0004]”, in the series with human TLR8, the “TLR8 activation (fold increase of SEAP induction over the background), described in words” value was “markedly weaker”. Also, in the series with J774 murine macrophages, the “TNF-α induction, described in words” value is recorded as “weaker than the level of induction observed for the other oligonucleotides”.
